# Measured values: patent US7432260B2, “Pyrimidine compounds” (Cyclacel Limted, priority 2002, dated 2008)
# Where two headings read alike, the source gives them in different places.
# Columns and labels:
# Messa = assay: 72-h MTT cytotoxicity assay Messa; format: cell-based; conditions: Homo sapiens, MES-SA, Table 5, Uterine
# Description: (§1) MTT cytotoxicity assay. […] Standard 72-h MTT (thiazolyl blue; 3-[4,5-dimethylthiazol-2-yl]-2,5-diphenyltetrazolium bromide) assays were performed (Haselsberger, K.; Peterson, D. C.; Thomas, D. G.; Darling, J. L. Anti Cancer Drugs 1996, 7, 331-8; Loveland, B. E.; Johns, T. G.; Mackay, I. R.; Vaillant, F.; Wang, Z. X.; Hertzog, P. J. Biochemistry International 1992, 27, 501-10). In short: cells were seeded into 96-well plates according to doubling time and incubated overnight at 37° C. Test compounds were made up in DMSO and a 1/3 dilution series prepared in 100 μL cell media, added to cells (in triplicates) and incubated for 72 ho at 37° C. MTT was made up as a stock of 5 mg/mL in cell media and filter-sterilised. Media was removed from cells followed by a wash with 200 μL PBS.
# (§2) MTT solution was then added at 20 μL per well and incubated in the dark at 37° C. for 4 h. MTT solution was removed and cells again washed with 200 μL PBS. MTT dye was solubilised with 200 μL per well of DMSO with agitation.
# SJSA-1 = assay: 72-h MTT cytotoxicity assay SJSA-1; format: cell-based; conditions: Homo sapiens, SJSA-1, 72 h; Table 5; Osteogenic sarcoma
# Description: as §1, §2
# [1] = target: PKCα (protein kinase C α) (Homo sapiens, UniProt P17252); assay: Kinase assay PKCα; format: biochemical; conditions: Table 3 selectivity panel; read-out: Kinase specificity IC50 PKCα
# Description: (§3) Kinase assays. […] This was achieved by measurement of incorporation of radioactive phosphate from ATP into appropriate polypeptide substrates. Recombinant protein kinases and kinase complexes were produced or obtained commercially. Assays were performed using 96-well plates and appropriate assay buffers (typically 25 mM β-glycerophosphate, 20 mM MOPS, 5 mM EGTA, 1 mM DTT, 1 mM […], pH 7.4), into which were added 2-4 μg of active enzyme with appropriate substrates. The reactions were initiated by addition of Mg/ATP mix (15 mM MgCl2+100 μM ATP with 30-50 kBq per well of [γ-^32P]-ATP) and mixtures incubated as required at 30° C. Reactions were stopped on ice, followed by filtration through p81 filterplates or GF/C filterplates (Whatman Polyfiltronics, Kent, UK). After washing 3 times with 75 mM aq orthophosphoric acid, plates were dried, scintillant added and incorporated radioactivity measured in a scintillation counter (TopCount, Packard Instruments, Pangbourne, Berks, UK). Compounds for kinase assay were made-up as 10 mM stocks in DMSO and diluted into 10% DMSO inrassay buffer.
# [2] = Compound cytotoxicity in PBMCs (MTS); format: cell-based; conditions: human, concentration decreasing cell viability by 50%, read-out: PBMC TC50
# Description: Representative compounds of the present invention were tested for antiviral activity against HIV-1 in human peripheral blood mononuclear cells (PBMCs) using the clinical paediatric HIV strain RoJo or WeJo. PBMCs were cultured under conditions which promote cell survival and HIV replication. Antiviral activity was tested for from 6-9 log10 serial dilutions of a 100 μM compound stock solution in DMSO.
# Fresh PBMCs, seronegative for HIV and HBV, were isolated from screened donors (Interstate Blood Bank, Inc. Memphis, Term.). Cells were pelleted/washed 2-3 times by low speed centrifugation and re-suspension in PBS to remove contaminating platelets. […] Banded PBMCs were gently aspirated from the resulting interface and subsequently washed with PBS by low speed centrifugation. After the final wash, cells were enumerated by trypan blue exclusion and re-suspended in RPMI 1640 supplemented with fetal bovine serum (FBS), and L-glutamine, Phytohemagglutinin (PHA-P, Sigma). The cells were allowed to incubate at 37° C. After incubation, PBMCs were centrifuged and resuspended in RPMI 1640 with FBS, L-glutamine, penicillin, streptomycin, gentamycin, and recombinant human IL-2 (R&D Systems, Inc). IL-2 is included in the culture medium to maintain the cell division initiated by the PHA mitogenic stimulation. PBMCs were maintained in this with bi-weekly medium changes until used in the assay protocol. Cells were kept in culture for a maximum of two weeks before being deemed too old for use in assays and discarded. Monocytes were depleted from the culture as the result of adherence to the tissue culture flask.
# For the standard PBMC assay, PHA-P stimulated cells from at least two normal donors were pooled, diluted and plated in the interior wells of a 96-well round bottom microplate. Pooling of mononuclear cells from more than one donor was used to minimise the variability observed between individual donors, which results from quantitative and qualitative differences in HIV infection and overall response to the PHA and IL-2 of primary lymphocyte populations. Each plate contained virus/cell control wells (cells plus virus), experimental wells (drug plus cells plus virus) and compound control wells (drug plus media […], necessary for MTS monitoring of cytotoxicity). Since HIV-1 is not cytopathic to PBMCs, this allows the use of the same assay plate for both antiviral activity and cytotoxicity measurements. Test drug dilutions were prepared in microtiter tubes and each concentration was placed in appropriate wells using the standard format. A predetermined dilution of virus stock was placed in each test well (final MOI≅0.1). The PBMC cultures were maintained for seven days following infection at 37° C., 5% CO2. After this period, cell-free supernatant samples were collected for analysis of reverse transcriptase activity and/or HIV p24 content. Following removal of supernatant samples, compound cytotoxicity was measured by addition of MTS to the plates for determination of cell viability. Wells were also examined microscopically and any abnormalities were noted.
# Hacat = assay: 72-h MTT cytotoxicity assay Hacat; format: cell-based; conditions: Homo sapiens, Table 5, Skin keratinocytes
# Description: as §1, §2
# nci-H460 = assay: 72-h MTT cytotoxicity assay nci-H460; format: cell-based; conditions: Homo sapiens, NCI-H460, 72 h; Table 5; Lung
# Description: as §1, §2
# WI38 = assay: 72-h MTT cytotoxicity assay WI38; format: cell-based; conditions: Homo sapiens, WI-38, 72 h; Table 5; Foetal lung fibroblast (non-transformed)
# Description: as §1, §2
# DU-145 = assay: 72-h MTT cytotoxicity assay DU-145; format: cell-based; conditions: Homo sapiens, DU-145, 72 h; Table 5; Prostate
# Description: as §1, §2
# AGS = assay: 72-h MTT cytotoxicity assay AGS; format: cell-based; conditions: Homo sapiens, Table 5, Gastric adenocarcinoma
# Description: as §1, §2
# [3] = target: Abl (Ableson tyrosine kinase) (Homo sapiens, UniProt P00519); assay: Kinase assay Abl; format: biochemical; conditions: Table 3 selectivity panel; read-out: Kinase specificity IC50 Abl
# Description: as §3
# [4] = target: ERK2 (extracellular-signal-regulated kinase 2) (Homo sapiens, UniProt P28482); assay: Kinase assay ERK2; format: biochemical; conditions: Table 3 selectivity panel; read-out: Kinase specificity IC50 ERK2
# Description: as §3
# SKUT-1B = assay: 72-h MTT cytotoxicity assay SKUT-1B; format: cell-based; conditions: Homo sapiens, Skut1B, Table 5, Leiomyosarcoma
# Description: as §1, §2
# CDK2/cyclin E = CDK2/cyclin E (Homo sapiens, UniProt P24941); assay: Kinase assay CDK2/cyclin E; format: biochemical
# How it was run: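 Each kinase phosphorylates a suitable polypeptide using 32P-labelled ATP (100 μM) at 30° C. Filtered, washed product is counted.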
# [5] = Table 2, read-out: Kinase Inhibition IC50 CDK2 cyclin E
# [6] = Table 3 selectivity panel, read-out: Kinase specificity IC50 CDK2/E
# Chain of ERK2 (extracellular-signal-regulated kinase 2) (P28482 whole entry, species assumed): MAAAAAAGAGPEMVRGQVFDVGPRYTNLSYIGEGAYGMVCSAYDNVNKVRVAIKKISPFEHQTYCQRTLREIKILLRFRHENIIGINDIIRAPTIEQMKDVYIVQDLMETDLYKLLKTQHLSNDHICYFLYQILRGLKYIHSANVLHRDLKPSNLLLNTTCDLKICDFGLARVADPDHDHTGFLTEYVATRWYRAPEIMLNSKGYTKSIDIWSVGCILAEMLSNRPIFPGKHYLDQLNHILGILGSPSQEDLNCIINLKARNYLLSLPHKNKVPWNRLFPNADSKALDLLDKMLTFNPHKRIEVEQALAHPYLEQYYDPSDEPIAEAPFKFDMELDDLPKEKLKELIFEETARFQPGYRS
# Chain of Abl (Ableson tyrosine kinase) (P00519 whole entry, species assumed): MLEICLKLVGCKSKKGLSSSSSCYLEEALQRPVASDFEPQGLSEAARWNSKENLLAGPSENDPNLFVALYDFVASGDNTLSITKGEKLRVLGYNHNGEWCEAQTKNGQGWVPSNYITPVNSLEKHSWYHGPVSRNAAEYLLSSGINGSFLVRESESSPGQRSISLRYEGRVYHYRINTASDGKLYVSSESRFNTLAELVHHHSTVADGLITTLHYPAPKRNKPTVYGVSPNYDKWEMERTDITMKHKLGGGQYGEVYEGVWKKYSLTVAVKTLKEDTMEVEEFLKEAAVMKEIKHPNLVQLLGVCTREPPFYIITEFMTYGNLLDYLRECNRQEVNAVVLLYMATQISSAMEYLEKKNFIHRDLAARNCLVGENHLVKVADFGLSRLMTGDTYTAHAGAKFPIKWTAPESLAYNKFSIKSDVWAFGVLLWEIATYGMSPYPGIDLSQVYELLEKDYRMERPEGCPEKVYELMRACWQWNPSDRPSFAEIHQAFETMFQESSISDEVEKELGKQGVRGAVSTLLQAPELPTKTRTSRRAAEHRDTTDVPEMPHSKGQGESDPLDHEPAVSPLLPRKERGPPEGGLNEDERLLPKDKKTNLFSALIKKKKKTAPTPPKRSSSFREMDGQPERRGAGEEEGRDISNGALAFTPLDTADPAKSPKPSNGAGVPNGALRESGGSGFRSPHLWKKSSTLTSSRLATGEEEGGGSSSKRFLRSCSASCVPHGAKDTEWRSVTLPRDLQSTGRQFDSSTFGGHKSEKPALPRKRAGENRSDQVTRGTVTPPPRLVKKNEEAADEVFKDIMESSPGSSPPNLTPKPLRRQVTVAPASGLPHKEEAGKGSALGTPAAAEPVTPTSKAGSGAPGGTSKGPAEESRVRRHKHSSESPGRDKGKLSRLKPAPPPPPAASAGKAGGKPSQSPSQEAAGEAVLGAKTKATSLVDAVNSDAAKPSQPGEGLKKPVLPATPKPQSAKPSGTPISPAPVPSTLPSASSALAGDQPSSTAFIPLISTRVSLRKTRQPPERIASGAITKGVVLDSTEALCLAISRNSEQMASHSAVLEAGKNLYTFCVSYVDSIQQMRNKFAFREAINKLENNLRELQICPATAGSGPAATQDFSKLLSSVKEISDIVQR
SMILES,IC50 (Messa) [µM],IC50 (SJSA-1) [µM],IC50 [1] [µM],CC50 at 7 days [2] [µM],IC50 (Hacat) [µM],IC50 (nci-H460) [µM],IC50 (WI38) [µM],IC50 (DU-145) [µM],IC50 (AGS) [µM],IC50 [3] [µM],IC50 [4] [µM],IC50 (SKUT-1B) [µM],IC50 (CDK2/cyclin E; [5]) [µM],IC50 (CDK2/cyclin E; [6]) [µM]
"Cc1nc(N)sc1-c1ccnc(Nc2ccc(N3CCOCC3)cc2)n1 [Compound 1, [4-(2-Amino-4-methyl-thiazol-5-yl)-pyrimidin-2-yl]-(4-morpholin-4-yl-phenyl)-amine]",0.2,> 5,> 100,6.1,1.1,0.2,> 5,1.5,1.1,–,–,–,–,–
"CNc1nc(C)c(-c2ccnc(Nc3ccc(N4CCOCC4)cc3)n2)s1 [Compound 3, [4-(2-N-Methylamino-4-methyl-thiazol-5-yl)-pyrimidin-2-yl]-(4-morpholinophenyl)-amine]",–,–,> 100,> 100,–,–,–,–,–,50,> 100,–,–,–
"CCNc1nc(C)c(-c2ccnc(Nc3ccc(N4CCOCC4)cc3)n2)s1 [Compound 4, [4-(2-Ethylamino-4-methyl-thiazol-5-yl)-pyrimidin-2-yl]-(4-morpholin-4-yl-phenyl)-amine]",–,–,–,9.4,–,–,–,–,–,–,–,–,–,–
"CNc1nc(C)c(-c2ccnc(Nc3ccc(N4CCN(Cc5ccccc5)CC4)cc3)n2)s1 [Compound 11, [4-(4-Benzyl-piperazin-1-yl)-phenyl]-[4-(4-methyl-2-methylamino-thiazol-5-yl)-pyrimidin-2-yl]-amine]",0.1,4.3,> 100,–,1,0.7,22,1,1.3,72,> 100,0.3,0.26,0.26
"Cc1nc(NC(=O)[C@H](N)[C@@H](C)O)sc1-c1ccnc(Nc2cccc([N+](=O)[O-])c2)n1 [Compound 15, (2R,3R)-2-Amino-3-hydroxy-N-{4-methyl-5-[2-(3-nitro-phenylamino)-pyrimidin-4-yl]-thiazol-2-yl}-butyramide]",0.9,1.9,> 100,2.4,1.5,1.2,> 5,1.3,1.1,0.76,> 100,0.2,0.13,0.15
"CC[C@@H](N)C(=O)Nc1nc(C)c(-c2ccnc(Nc3cccc([N+](=O)[O-])c3)n2)s1 [Compound 16, (2R)-2-Amino-N-{4-methyl-5-[2-(3-nitro-phenylamino)-pyrimidin-4-yl]-thiazol-2-yl}-butyramide]",0.4,1,53,–,1.1,0.3,1.4,0.6,0.3,1.5,> 100,0.1,0.32,0.35
"Cc1nc(C)c(-c2ccnc(Nc3ccc(NC(=O)CN4CCCC4)cc3)n2)s1 [Compound 53, N-{4-[4-(2,4-Dimethyl-thiazol-5-yl)-pyrimidin-2-ylamino]-phenyl}-2-pyrrolidin-1-yl-acetamide]",–,–,–,1.6,–,–,–,–,–,–,–,–,0.52,–
